Assay results reported in article PMC9374744, “Structural basis for receptor selectivity and inverse agonism in S1P5 receptors” (Nature Communications, 2022).
Where “and” joins values, the source holds several entries; their conditions need not be identical. Identical values can stand only once.

Columns and labels:
[1] = molecular target: human S1P5 V115A mutant (Homo sapiens, UniProt Q9H228, V115A); assay: BRET-based cAMP Gi signaling assay, S1P5 V115A; conditions: inverse agonism
[2] = molecular target: human S1P5 L292A mutant (Homo sapiens, UniProt Q9H228, L292A); assay: BRET-based cAMP Gi signaling assay, S1P5 L292A; conditions: inverse agonism
[3] = molecular target: human S1P5 L292V mutant (Homo sapiens, UniProt Q9H228, L292V); assay: BRET-based cAMP Gi signaling assay, S1P5 L292V; conditions: inverse agonism
[4] = molecular target: human S1P5 G293A mutant (Homo sapiens, UniProt Q9H228, G293A); assay: BRET-based cAMP Gi signaling assay, S1P5 G293A; conditions: inverse agonism
[5] = molecular target: human S1P5 M296W mutant (Homo sapiens, UniProt Q9H228, M296W); assay: BRET-based cAMP Gi signaling assay, S1P5 M296W; conditions: for BRET ratio, single replicate readings (Supplementary Figure 6h): listed as ONO
[6] = molecular target: human WT S1P5 receptor (Homo sapiens, UniProt Q9H228); assay: BRET-based cAMP (EPAC biosensor) Gi signaling assay, WT S1P5; conditions: for BRET signal, raw replicate readings: WT, listed as ONO; for EC50: inverse agonism
human WT S1P5 receptor, sequence (Q9H228 whole entry): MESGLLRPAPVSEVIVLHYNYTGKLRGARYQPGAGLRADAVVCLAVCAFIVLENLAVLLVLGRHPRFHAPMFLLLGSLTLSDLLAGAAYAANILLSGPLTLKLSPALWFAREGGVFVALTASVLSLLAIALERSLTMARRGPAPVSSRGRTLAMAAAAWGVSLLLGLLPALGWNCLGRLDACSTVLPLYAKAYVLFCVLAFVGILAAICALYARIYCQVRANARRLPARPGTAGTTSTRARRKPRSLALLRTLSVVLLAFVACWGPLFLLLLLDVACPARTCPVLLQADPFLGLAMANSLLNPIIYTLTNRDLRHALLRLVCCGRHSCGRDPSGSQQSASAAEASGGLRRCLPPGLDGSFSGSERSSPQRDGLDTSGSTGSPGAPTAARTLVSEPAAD

human S1P5 M296W mutant, sequence (Q9H228 whole entry M296W): as the sequence (Q9H228 whole entry) above, with M296W counted along it
human S1P5 G293A mutant, sequence (Q9H228 whole entry G293A): as the sequence (Q9H228 whole entry) above, with G293A counted along it
human S1P5 V115A mutant, sequence (Q9H228 whole entry V115A): as the sequence (Q9H228 whole entry) above, with V115A counted along it
human S1P5 L292A mutant, sequence (Q9H228 whole entry L292A): as the sequence (Q9H228 whole entry) above, with L292A counted along it
human S1P5 L292V mutant, sequence (Q9H228 whole entry L292V): as the sequence (Q9H228 whole entry) above, with L292V counted along it

## O=C(O)CCCN1CCc2cccc(OCCc3cccc4ccccc34)c2CC1 [ONO-5430608, 4-{6-[2-(1-naphthyl)ethoxy]-1,2,4,5-tetrahydro-3H-3-benzazepin-3-yl} butanoic acid]
[1]; ONO, pEC50, M, V115A, mean ± SD, n=3
  EC50: 29.5 nM
[1]; ONO-5430608 pEC50, single experiments #1-#3, V115A, Figure 2c source data
  EC50: 30.6 nM and 24.8 nM and 34.5 nM
[2]; ONO, pEC50, M, L292A, mean ± SD, n=3
  EC50: 21.9 nM
[2]; ONO-5430608 pEC50, single experiments #1-#3, L292A, Figure 2c source data
  EC50: 18.9 nM and 24 nM and 23.2 nM
[3]; ONO, pEC50, M, L292V, mean ± SD, n=3
  EC50: 23.4 nM
[3]; ONO-5430608 pEC50, single experiments #1-#3, L292V, Figure 2c source data
  EC50: 23 nM and 25.6 nM and 22.5 nM
[4]; ONO, pEC50, M, G293A, mean ± SD, n=3
  EC50: 4.57 nM
[4]; ONO-5430608 pEC50, single experiments #1-#3, G293A, Figure 2c source data
  EC50: 5.11 nM and 4.57 nM and 4.12 nM
[5]; [ONO] 0.169351 nM
  BRET ratio, single replicate readings (Supplementary Figure 6h): 0.7521 and 0.7659 and 0.7554 and 0.7607 and 0.7663 and 0.7553 and 0.7695 and 0.7638 and 0.7661
[5]; [ONO] 0.508053 nM
  BRET ratio, single replicate readings (Supplementary Figure 6h): 0.7597 and 0.7659 and 0.7636 and 0.7627 and 0.756 and 0.7622 and 0.7625 and 0.7687 and 0.7621
[5]; [ONO] 1.52416 nM
  BRET ratio, single replicate readings (Supplementary Figure 6h): 0.7595 and 0.7589 (2×) and 0.7566 and 0.7528 and 0.7609 and 0.7625 and 0.7671 and 0.7682
[5]; [ONO] 4.57247 nM
  BRET ratio, single replicate readings (Supplementary Figure 6h): 0.7595 and 0.7699 and 0.7641 and 0.7574 and 0.7643 and 0.7563 and 0.7684 and 0.7632 and 0.7578
[5]; [ONO] 13.7174 nM
  BRET ratio, single replicate readings (Supplementary Figure 6h): 0.7542 and 0.7653 and 0.7527 and 0.7649 and 0.7654 and 0.7644 and 0.7698 and 0.7669 and 0.7638
[5]; [ONO] 41.1523 nM
  BRET ratio, single replicate readings (Supplementary Figure 6h): 0.7431 and 0.7677 and 0.7621 and 0.752 and 0.762 and 0.7675 and 0.761 and 0.7565 and 0.7598
[5]; [ONO] 123.457 nM
  BRET ratio, single replicate readings (Supplementary Figure 6h): 0.7416 and 0.7628 and 0.7677 and 0.7662 and 0.759 and 0.753 and 0.7663 and 0.7668 and 0.7626
[5]; [ONO] 370.37 nM
  BRET ratio, single replicate readings (Supplementary Figure 6h): 0.7572 and 0.757 and 0.7547 and 0.7694 and 0.7517 and 0.7654 and 0.7672 and 0.761 and 0.7564
[5]; [ONO] 1111.11 nM
  BRET ratio, single replicate readings (Supplementary Figure 6h): 0.7578 and 0.7573 and 0.7667 and 0.7569 and 0.7627 and 0.7676 and 0.756 and 0.7697 and 0.7628
[5]; [ONO] 3333.33 nM
  BRET ratio, single replicate readings (Supplementary Figure 6h): 0.7629 and 0.7592 and 0.7535 and 0.7543 and 0.758 and 0.7671 and 0.744 and 0.7683 and 0.7586
[5]; inverse agonism, Figure 2c source data, N/R = no response
  ONO-5430608 pEC50, single experiments #1-#3: N/R
[5]; inverse agonism, n=3, N/R = no response
  ONO, pEC50, M: N/R
[6]; ONO 0.169351 nM, Suppl. Fig. 6f
  BRET signal, raw replicate readings: 0.7609 and 0.7595 and 0.7587 and 0.7654 and 0.7615 and 0.7604 (2×) and 0.7628 and 0.7565
[6]; ONO 0.508053 nM, Suppl. Fig. 6f
  BRET signal, raw replicate readings: 0.753 and 0.7592 and 0.758 and 0.7626 and 0.762 and 0.759 and 0.761 and 0.7561 and 0.756
[6]; ONO 1.52416 nM, Suppl. Fig. 6f
  BRET signal, raw replicate readings: 0.748 and 0.7474 and 0.7478 (2×) and 0.7504 and 0.7525 and 0.7488 and 0.7446 and 0.7482
[6]; ONO 4.57247 nM, Suppl. Fig. 6f
  BRET signal, raw replicate readings: 0.7341 and 0.7354 and 0.7359 and 0.7386 and 0.7387 and 0.7347 and 0.7361 and 0.7362 and 0.7324
[6]; ONO 13.7174 nM, Suppl. Fig. 6f
  BRET signal, raw replicate readings: 0.7302 and 0.7285 and 0.7222 and 0.7325 and 0.7293 and 0.7332 and 0.7263 and 0.7276 and 0.7242
[6]; ONO 41.1523 nM, Suppl. Fig. 6f
  BRET signal, raw replicate readings: 0.7214 and 0.7273 and 0.7219 and 0.7256 and 0.7267 and 0.7266 and 0.7211 and 0.723 and 0.7239
[6]; ONO 123.457 nM, Suppl. Fig. 6f
  BRET signal, raw replicate readings: 0.7206
[6]; ONO 370.37 nM, Suppl. Fig. 6f
  BRET signal, raw replicate readings: 0.7228 and 0.7223 and 0.7157 and 0.7233 and 0.7238 and 0.7187 and 0.7181 (2×) and 0.7189
[6]; ONO 1111.11 nM, Suppl. Fig. 6f
  BRET signal, raw replicate readings: 0.7185 and 0.7195 and 0.7179 and 0.7229 and 0.7236 and 0.7207 and 0.7165 and 0.7204 and 0.7176
[6]; ONO 3333.33 nM, Suppl. Fig. 6f
  BRET signal, raw replicate readings: 0.719 and 0.7164 and 0.7226 and 0.7203 and 0.722 and 0.7221 and 0.7173 and 0.7187 and 0.715
[6]; ONO 10000 nM, Suppl. Fig. 6f
  BRET signal, raw replicate readings: 0.7216 and 0.7166 and 0.7165 and 0.7146 and 0.719 and 0.7226 and 0.7176 and 0.7153 and 0.7185
[6]; ONO 10000 nM, Suppl. Fig. 6d
  BRET signal, raw replicate readings: 0.7216 and 0.7166 and 0.7165 and 0.7146 and 0.719 and 0.7226 and 0.7176 and 0.7153 and 0.7185
[6]; ONO, pEC50, M, WT S1P5, mean ± SD, n=3
  EC50: 1.7 nM
[6]; ONO-5430608 pEC50, single experiments #1-#3, WT S1P5, Figure 2c source data
  EC50: 1.35 nM and 2 nM and 1.8 nM
[6]; WT S1P5, BRET-based cAMP sensor
  mode of action on Gi-protein-mediated signaling (basal activity level): inverse agonist
